Laboratory results as given in patent US7166299B2, “Preparation of aqueous clear solution dosage forms with bile acids” (priority 1998, dated 2007).
Where “and” joins values, the source holds several entries; their conditions need not be identical. Identical values can stand only once.

Assay: Solution stability test (HPLC) of UDCA, branched chained amino acids and maltodextrin solution, Example IV
Assay type: physicochemical
Description: The stability tests were conducted on three different aqueous solution systems: […]. A bile acid and a high molecular weight aqueous soluble starch conversion product were combined in aqueous solution according to Example I, with results as shown in Tables 1A and 1B. • 2. Mixed bile acids and high molecular weight aqueous soluble starch conversion products were combined in aqueous solution according to Example II, with results as shown in Table 2. • 3. Bile acids, high molecular weight aqueous soluble starch conversion products and branched chained amino acids (e.g. leucine, isoleucine, valine, or other amino acid with a branched side chain) were combined in aqueous solution according to Example IV, with results as shown in Tables 3A through 3F. The stability tests were performed with HPLC and microscope light at various pH conditions under the normal and accelerated conditions. Accelerated conditions for testing pharmaceutical compositions have been described (Remington, The Science and Practice of Pharmacy, 19th ed., p. 640). […] Thus, the formulations of the examples are suitable for preparing a commercial liquid dosage form. […] Some formulations remain stable for over 2 years. Moreover, the solution stability tests were conducted on the aqueous solution dosage forms comprising the mixture of aqueous soluble UDCA, branched chained amino acid (leucine, isoleucine, valine) and maltodextrin according to example IV as a typical example of the solution dosage forms in which bile acid as a therapeutically active agent, as an adjuvant or carrier, pharmaceutically active agent, or enhancer of solubility, and high molecular weight aqueous soluble starch conversion products or soluble non-starch polysaccharides are dissolved. According to the test results, there is no discoloration, no clarity changes, and no precipitation. […] In the tables, the concentration of the indicated bile acid salt for each of the three numbered trials and the average thereof is reported on each line. The percentage indicates the relative concentration of the bile acid salt after incubation for a certain amount of time in comparison with the initial concentration. 85 mL of the aqueous solution in which soluble UDCA is dissolved was prepared, and then maltodextrin was added into the clear solution. Into the resulting clear solution, branched amino acids were added with adjusting the pH (4–7) with agitation and then sweetener, preservatives, and flavoring agent were added. Purified water was added to adjust the total volume to be 100 mL. Tables 3A to 3F show stability test results over time of formulation prepared with amino acids according to Example IV. All stability tests were conducted at 50° C. Stability test results at pH 1 (Table 3A), pH 3 (Table 3B), pH 5 (Table 3C), pH 7 (Table 3D), pH 9 (Table 3E), and pH 10 (Table 3F) are shown.

## CC[C@H](C)[C@H](N)C(=O)O [Ile, isoleucine]
Table 3A: pH1, 50° C., day 0
  Percentage of day 0 concentration: 100.0%
  concentration by HPLC, Average: 0.248
  concentration by HPLC, trials #1-#3: 0.261 and 0.236 and 0.249
Table 3A: pH1, 50° C., day 1
  Percentage of day 0 concentration: 105.0%
  concentration by HPLC, Average: 0.261
  concentration by HPLC, trials #1-#3: 0.256 and 0.275 and 0.251
Table 3A: pH1, 50° C., day 2
  Percentage of day 0 concentration: 104.9%
  concentration by HPLC, Average: 0.260
  concentration by HPLC, trials #1-#3: 0.268 and 0.263 and 0.251
Table 3A: pH1, 50° C., day 6
  Percentage of day 0 concentration: 114.6%
  concentration by HPLC, Average: 0.285
  concentration by HPLC, trials #1-#3: 0.295 and 0.268 and 0.291
Table 3A: pH1, 50° C., day 7
  Percentage of day 0 concentration: 103.4%
  concentration by HPLC, Average: 0.257
  concentration by HPLC, trials #1-#3: 0.249 and 0.254 and 0.267
Table 3A: pH1, 50° C., day 8
  Percentage of day 0 concentration: 98.8%
  concentration by HPLC, Average: 0.245
  concentration by HPLC, trials #1-#3: 0.253 and 0.243 and 0.240
Table 3A: pH1, 50° C., day 9
  Percentage of day 0 concentration: 106.6%
  concentration by HPLC, Average: 0.265
  concentration by HPLC, trials #1-#3: 0.263 and 0.268
Table 3B: pH 3, 50° C., day 0
  Percentage of day 0 concentration: 100.0%
  concentration by HPLC, Average: 0.256
  concentration by HPLC, trials #1-#3: 0.261 and 0.254 and 0.253
Table 3B: pH 3, 50° C., day 1
  Percentage of day 0 concentration: 103.3%
  concentration by HPLC, Average: 0.265
  concentration by HPLC, trials #1-#3: 0.266 and 0.268 and 0.261
Table 3B: pH 3, 50° C., day 2
  Percentage of day 0 concentration: 99.3%
  concentration by HPLC, Average: 0.254
  concentration by HPLC, trials #1-#3: 0.273 and 0.243 and 0.247
Table 3B: pH 3, 50° C., day 6
  Percentage of day 0 concentration: 117.4%
  concentration by HPLC, Average: 0.301
  concentration by HPLC, trials #1-#3: 0.296 and 0.306 and 0.300
Table 3B: pH 3, 50° C., day 7
  Percentage of day 0 concentration: 100.0%
  concentration by HPLC, Average: 0.256
  concentration by HPLC, trials #1-#3: 0.247 and 0.265 and 0.257
Table 3B: pH 3, 50° C., day 8
  Percentage of day 0 concentration: 96.7%
  concentration by HPLC, Average: 0.248
  concentration by HPLC, trials #1-#3: 0.250 and 0.247
Table 3B: pH 3, 50° C., day 13
  Percentage of day 0 concentration: 100.9%
  concentration by HPLC, Average: 0.258
  concentration by HPLC, trials #1-#3: 0.285 and 0.240 and 0.250
Table 3C: pH 5, 50° C., day 0
  Percentage of day 0 concentration: 100.0%
  concentration by HPLC, Average: 0.279
  concentration by HPLC, trials #1-#3: 0.285 and 0.258 and 0.295
Table 3C: pH 5, 50° C., day 3
  Percentage of day 0 concentration: 99.0%
  concentration by HPLC, Average: 0.277
  concentration by HPLC, trials #1-#3: 0.280 and 0.275
Table 3C: pH 5, 50° C., day 6
  Percentage of day 0 concentration: 98.7%
  concentration by HPLC, Average: 0.276
  concentration by HPLC, trials #1-#3: 0.285 and 0.273 and 0.270
Table 3C: pH 5, 50° C., day 10
  Percentage of day 0 concentration: 98.4%
  concentration by HPLC, Average: 0.275
  concentration by HPLC, trials #1-#3: 0.274 and 0.276
Table 3C: pH 5, 50° C., day 13
  Percentage of day 0 concentration: 100.0%
  concentration by HPLC, Average: 0.279
  concentration by HPLC, trials #1-#3: 0.273 and 0.287 and 0.278
Table 3C: pH 5, 50° C., day 17
  Percentage of day 0 concentration: 98.3%
  concentration by HPLC, Average: 0.275
  concentration by HPLC, trials #1-#3: 0.278 and 0.276 and 0.270
Table 3C: pH 5, 50° C., day 20
  Percentage of day 0 concentration: 95.0%
  concentration by HPLC, Average: 0.266
  concentration by HPLC, trials #1-#3: 0.261 and 0.275
Table 3C: pH 5, 50° C., day 24
  Percentage of day 0 concentration: 99.3%
  concentration by HPLC, Average: 0.277
  concentration by HPLC, trials #1-#3: 0.267 and 0.274 and 0.292
Table 3D: pH 7, 50° C., day 0
  Percentage of day 0 concentration: 100.0%
  concentration by HPLC, Average: 0.289
  concentration by HPLC, trials #1-#3: 0.296 and 0.289 and 0.281
Table 3D: pH 7, 50° C., day 5
  Percentage of day 0 concentration: 99.7%
  concentration by HPLC, Average: 0.288
  concentration by HPLC, trials #1-#3: 0.300 and 0.282 and 0.281
Table 3D: pH 7, 50° C., day 8
  Percentage of day 0 concentration: 95.5%
  concentration by HPLC, Average: 0.276
  concentration by HPLC, trials #1-#3: 0.277 and 0.282 and 0.268
Table 3D: pH 7, 50° C., day 12
  Percentage of day 0 concentration: 95.8%
  concentration by HPLC, Average: 0.277
  concentration by HPLC, trials #1-#3: 0.273 and 0.278
Table 3D: pH 7, 50° C., day 15
  Percentage of day 0 concentration: 93.5%
  concentration by HPLC, Average: 0.270
  concentration by HPLC, trials #1-#3: 0.271 and 0.273 and 0.266
Table 3D: pH 7, 50° C., day 19
  Percentage of day 0 concentration: 99.3%
  concentration by HPLC, Average: 0.287
  concentration by HPLC, trials #1-#3: 0.294 and 0.285 and 0.281
Table 3E: pH 9, 50° C., day 0
  Percentage of day 0 concentration: 100.0%
  concentration by HPLC, Average: 0.286
  concentration by HPLC, trials #1-#3: 0.291 and 0.286 and 0.282
Table 3E: pH 9, 50° C., day 3
  Percentage of day 0 concentration: 95.6%
  concentration by HPLC, Average: 0.273
  concentration by HPLC, trials #1-#3: 0.266 and 0.273 and 0.282
Table 3E: pH 9, 50° C., day 6
  Percentage of day 0 concentration: 95.9%
  concentration by HPLC, Average: 0.274
  concentration by HPLC, trials #1-#3: 0.277 and 0.274 and 0.272
Table 3E: pH 9, 50° C., day 10
  Percentage of day 0 concentration: 91.2%
  concentration by HPLC, Average: 0.261
  concentration by HPLC, trials #1-#3: 0.243 and 0.245 and 0.295
Table 3E: pH 9, 50° C., day 13
  Percentage of day 0 concentration: 87.4%
  concentration by HPLC, Average: 0.250
  concentration by HPLC, trials #1-#3: 0.246 and 0.269 and 0.236
Table 3E: pH 9, 50° C., day 17
  Percentage of day 0 concentration: 93.1%
  concentration by HPLC, Average: 0.267
  concentration by HPLC, trials #1-#3: 0.275 and 0.280 and 0.245
Table 3F: pH 10, 50° C., day 0
  Percentage of day 0 concentration: 100.0%
  concentration by HPLC, Average: 0.287
  concentration by HPLC, trials #1-#3: 0.292
Table 3F: pH 10, 50° C., day 2
  Percentage of day 0 concentration: 84.7%
  concentration by HPLC, Average: 0.243
Table 3F: pH 10, 50° C., day 5
  Percentage of day 0 concentration: 76.0%
  concentration by HPLC, Average: 0.218
Table 3F: pH 10, 50° C., day 7
  Percentage of day 0 concentration: 74.5%
  concentration by HPLC, Average: 0.214
Table 3F: pH 10, 50° C., day 9
  Percentage of day 0 concentration: 70.2%
  concentration by HPLC, Average: 0.202
  concentration by HPLC, trials #1-#3: 0.206 and 0.192 and 0.207
